Measured values published in paper PMC11189555, “Aryl amino acetamides prevent Plasmodium falciparum ring development via targeting the lipid-transfer protein PfSTART1” (Nature Communications, 2024).

Legend:
[1] = test system: PopE-F10 M-833 resistant clone (PfSTART1 N330K); experiment: Growth inhibition assay (72 h, LDH activity); type: cell-based, Plasmodium falciparum
Protocol: (§1) The drug was then removed, and parasites were allowed to recover. Another cycle of drug treatment (3 μM M-833) was then resumed. The resistant lines were cloned out by limiting dilution (diluting the culture into a 96-well plate to achieve an average of ~0.3 parasites per well), prior to growth inhibition assays and genomic DNA (gDNA) extraction (DNeasy Blood and Tissue kit (Qiagen)[18].
(§2) Parasite growth assays with inhibitory compounds were performed as per[11] and are fully described in the Supplementary Information. […]
(§3) Growth inhibition assays. Synchronised ring-stage parasites (0.3-0.6% parasitemia, 2% haematocrit) were grown for 72 h in a serial-dilution of the compound under […]
(§4) and compound 4. Note that M-833 was first purchased from MolPort (MolPort -002-267-916) then made in-house at WEHI: the differences observed in EC50s across experiments are attributed to the different batches of M -833. For some experiments, 0, 0.25 or 2.5 mM of glucosamine (GlcN) was also added. Experiments were set up in technical duplicates or triplicates. Following a freeze -thaw cycle, lactate dehydrogenase (LDH) activity was assessed as an indicator of parasite growt h 5. 30 μL of parasite culture was incubated for 30 min in the dark with 75 μL Malstat mixture (0.1 M Tris pH 9.0, 20 g/L lactic acid, pH 7.5, 0.2% Triton-X100, 0.5 g/L acetylpyridine adenine dinucleotide (APAD, Sigma), 200 μg/mL nitroblue tetrazolium (NBT; Sigma), 1 μg/mL phenozine ethosulfate (PES; Sigma)). Absorbance was then measured at 650 nm, transformed using the formula below, plotted against the logarithm of the concentrations, and a non-linear regression (log(inhibitor) vs. response, variable slope) was calculated using GraphPad Prism to assess the half-inhibitory […]
(§5) Growth inhibition % = (1 − average(sample)− average(uRBC)) ∗ 100 […]
(§6) The DMSO samples were also used to assess growth of parasite in the presence of 0.25 and 2.5 mM GlcN (normalised by DMSO in 0 mM GlcN). […]

[2] = test system: PopD-D7 M-833 resistant clone (PfSTART1 N309K); experiment: Growth inhibition assay (72 h, LDH activity); type: cell-based, Plasmodium falciparum
Protocol: as §1, §2, §3, §4, §5, §6

In the case of CC(C)(Oc1ccc(Cl)c(S(=O)(=O)N2CCOCC2)c1)C(=O)Nc1ccc(F)c(Cl)c1 [compound 3], the EC50 ([1]; Plasmodium falciparum, 72 h, Supplementary Table 1, PopE-F10 (N330K)) is reported as 3250 nM, the “resistance of the line compared with 3D7” value ([1]; PopE-F10 (N330K), Fig 4B) is reported as “highly resistant” and the “(av-uRBC) / (DMSO-uRBC) x100” value ([1]; PopE-F10, 3.04832 nM, biological replicate 1) is reported as 115.115. The “(av-uRBC) / (DMSO-uRBC) x100” value ([1]; PopE-F10, 3.04832 nM, biological replicate 2) was 108.442, the “(av-uRBC) / (DMSO-uRBC) x100” value ([1]; PopE-F10, 3.04832 nM, biological replicate 3) was 119.048 and the “(av-uRBC) / (DMSO-uRBC) x100” value ([1]; PopE-F10, 9.14495 nM, biological replicate 1) was 115.06. For the same compound, the “(av-uRBC) / (DMSO-uRBC) x100” value ([1]; PopE-F10, 9.14495 nM, biological replicate 2) was 109.174, the “(av-uRBC) / (DMSO-uRBC) x100” value ([1]; PopE-F10, 9.14495 nM, biological replicate 3) was 119.013 and the “(av-uRBC) / (DMSO-uRBC) x100” value ([1]; PopE-F10, 27.4348 nM, biological replicate 1) was 115.16. For the same compound, the “(av-uRBC) / (DMSO-uRBC) x100” value ([1]; PopE-F10, 27.4348 nM, biological replicate 2) was 107.726, the “(av-uRBC) / (DMSO-uRBC) x100” value ([1]; PopE-F10, 27.4348 nM, biological replicate 3) was 110.78 and the “(av-uRBC) / (DMSO-uRBC) x100” value ([1]; PopE-F10, 82.3045 nM, biological replicate 1) was 115.437. For the same compound, the “(av-uRBC) / (DMSO-uRBC) x100” value ([1]; PopE-F10, 82.3045 nM, biological replicate 2) was 107.232, the “(av-uRBC) / (DMSO-uRBC) x100” value ([1]; PopE-F10, 82.3045 nM, biological replicate 3) was 123.007 and the “(av-uRBC) / (DMSO-uRBC) x100” value ([1]; PopE-F10, 246.914 nM, biological replicate 1) was 112.345. For the same compound, the “(av-uRBC) / (DMSO-uRBC) x100” value ([1]; PopE-F10, 246.914 nM, biological replicate 2) was 106.543, the “(av-uRBC) / (DMSO-uRBC) x100” value ([1]; PopE-F10, 246.914 nM, biological replicate 3) was 116.449 and the “(av-uRBC) / (DMSO-uRBC) x100” value ([1]; PopE-F10, 740.741 nM, biological replicate 1) was 107.602. For the same compound, the “(av-uRBC) / (DMSO-uRBC) x100” value ([1]; PopE-F10, 740.741 nM, biological replicate 2) was 102.914, the “(av-uRBC) / (DMSO-uRBC) x100” value ([1]; PopE-F10, 740.741 nM, biological replicate 3) was 98.1859 and the “(av-uRBC) / (DMSO-uRBC) x100” value ([1]; PopE-F10, 2222.22 nM, biological replicate 1) was 85.8267. For the same compound, the “(av-uRBC) / (DMSO-uRBC) x100” value ([1]; PopE-F10, 2222.22 nM, biological replicate 2) was 84.9625, the “(av-uRBC) / (DMSO-uRBC) x100” value ([1]; PopE-F10, 2222.22 nM, biological replicate 3) was 59.2883 and the “(av-uRBC) / (DMSO-uRBC) x100” value ([1]; PopE-F10, 6666.67 nM, biological replicate 1) was 37.9433. The “(av-uRBC) / (DMSO-uRBC) x100” value ([1]; PopE-F10, 6666.67 nM, biological replicate 2) was 28.6269, the “(av-uRBC) / (DMSO-uRBC) x100” value ([1]; PopE-F10, 6666.67 nM, biological replicate 3) was 13.3438 and the “(av-uRBC) / (DMSO-uRBC) x100” value ([1]; PopE-F10, 20000 nM, biological replicate 1) was 11.6135. For the same compound, the “(av-uRBC) / (DMSO-uRBC) x100” value ([1]; PopE-F10, 20000 nM, biological replicate 2) was 7.135, the “(av-uRBC) / (DMSO-uRBC) x100” value ([1]; PopE-F10, 20000 nM, biological replicate 3) was 4.744 and the “Fold change compared to 3D7” value ([1]; Supplementary Table 1, EC50 on PopE-F10 vs 3D7) was 203 fold. The EC50 ([2]; Plasmodium falciparum, Supplementary Table 1, PopD-D7 (N309K), 72 h, read-out: EC50) was 1400 nM, the “resistance of the line compared with 3D7” value ([2]; PopD-D7 (N309K), Fig 4B) was “highly resistant” and the “(av-uRBC) / (DMSO-uRBC) x100” value ([2]; PopD-D7, 3.04832 nM, biological replicate 1) was 117.893. The “(av-uRBC) / (DMSO-uRBC) x100” value ([2]; PopD-D7, 3.04832 nM, biological replicate 2) was 107.059, the “(av-uRBC) / (DMSO-uRBC) x100” value ([2]; PopD-D7, 3.04832 nM, biological replicate 3) was 122.96 and the “(av-uRBC) / (DMSO-uRBC) x100” value ([2]; PopD-D7, 9.14495 nM, biological replicate 1) was 119.508. For the same compound, the “(av-uRBC) / (DMSO-uRBC) x100” value ([2]; PopD-D7, 9.14495 nM, biological replicate 2) was 110.415, the “(av-uRBC) / (DMSO-uRBC) x100” value ([2]; PopD-D7, 9.14495 nM, biological replicate 3) was 124.421 and the “(av-uRBC) / (DMSO-uRBC) x100” value ([2]; PopD-D7, 27.4348 nM, biological replicate 1) was 119.539. For the same compound, the “(av-uRBC) / (DMSO-uRBC) x100” value ([2]; PopD-D7, 27.4348 nM, biological replicate 2) was 110.363, the “(av-uRBC) / (DMSO-uRBC) x100” value ([2]; PopD-D7, 27.4348 nM, biological replicate 3) was 140.932 and the “(av-uRBC) / (DMSO-uRBC) x100” value ([2]; PopD-D7, 82.3045 nM, biological replicate 1) was 115.279. The “(av-uRBC) / (DMSO-uRBC) x100” value ([2]; PopD-D7, 82.3045 nM, biological replicate 2) was 110.433, the “(av-uRBC) / (DMSO-uRBC) x100” value ([2]; PopD-D7, 82.3045 nM, biological replicate 3) was 132.525 and the “(av-uRBC) / (DMSO-uRBC) x100” value ([2]; PopD-D7, 246.914 nM, biological replicate 1) was 110.69. For the same compound, the “(av-uRBC) / (DMSO-uRBC) x100” value ([2]; PopD-D7, 246.914 nM, biological replicate 2) was 106.686, the “(av-uRBC) / (DMSO-uRBC) x100” value ([2]; PopD-D7, 246.914 nM, biological replicate 3) was 118.688 and the “(av-uRBC) / (DMSO-uRBC) x100” value ([2]; PopD-D7, 740.741 nM, biological replicate 1) was 93.2195. For the same compound, the “(av-uRBC) / (DMSO-uRBC) x100” value ([2]; PopD-D7, 740.741 nM, biological replicate 2) was 100.295, the “(av-uRBC) / (DMSO-uRBC) x100” value ([2]; PopD-D7, 740.741 nM, biological replicate 3) was 70.3418 and the “(av-uRBC) / (DMSO-uRBC) x100” value ([2]; PopD-D7, 2222.22 nM, biological replicate 1) was 51.7543. For the same compound, the “(av-uRBC) / (DMSO-uRBC) x100” value ([2]; PopD-D7, 2222.22 nM, biological replicate 2) was 59.804, the “(av-uRBC) / (DMSO-uRBC) x100” value ([2]; PopD-D7, 2222.22 nM, biological replicate 3) was 18.6053 and the “(av-uRBC) / (DMSO-uRBC) x100” value ([2]; PopD-D7, 6666.67 nM, biological replicate 1) was 13.8697. The “(av-uRBC) / (DMSO-uRBC) x100” value ([2]; PopD-D7, 6666.67 nM, biological replicate 2) was 12.8436, the “(av-uRBC) / (DMSO-uRBC) x100” value ([2]; PopD-D7, 6666.67 nM, biological replicate 3) was 12.5413 and the “(av-uRBC) / (DMSO-uRBC) x100” value ([2]; PopD-D7, 20000 nM, biological replicate 1) was 8.262. For the same compound, the “(av-uRBC) / (DMSO-uRBC) x100” value ([2]; PopD-D7, 20000 nM, biological replicate 2) was 6.955, the “(av-uRBC) / (DMSO-uRBC) x100” value ([2]; PopD-D7, 20000 nM, biological replicate 3) was 7.3043 and the “Fold change compared to 3D7” value ([2]; Supplementary Table 1, EC50 on PopD-D7 vs 3D7) was 88 fold.
